The values below come from PMC7536268, “Increased Antimicrobial Activity of Colistin in Combination With Gamithromycin Against Pasteurella multocida in a Neutropenic Murine Lung Infection Model” (Frontiers in Microbiology, 2020).

Structures are written as SMILES. Like-named read-outs stand apart in the source and are kept apart here. Where a SMILES comes first, the peptide text is derived from it. Bridges are numbered along the chain shown (N, C = ends). [ ]: non-standard residue; d: D form. The star is where a group is joined. X1 = CC[C@H](C)CCCCC(=O)*; Dab = NCC[C@H](N)C(=O)O

One series has as its system P. multocida. Further details: method as in Benoit et al., 2011. As to conditions: P. multocida with erm(E); ref Benoit et al., 2011; cited from earlier work. The text has this: Bovine respiratory disease (BRD) associated with Mannheimia haemolytica, P. multocida, and Histophilus somni is one of the most economically important diseases that occur in feedlots, and the global losses are estimated at over $3 billion per year ([Watts and Sweeney, 2010]).

The conditions of series [1]: swine, SC 6 mg/kg; ref Wyns et al., 2014; cited from earlier work.
The subject of series [2] is Pasteurella multocida strains. Put plainly: MIC by broth microdilution (CLSI). It is filed as cell-based. The conditions noted are these: drug alone, broth microdilution, Mueller-Hinton broth, triplicate. How it is done:
The susceptibility of the selected P. multocida isolates and the quality control isolate (ATCC 25922) to colistin, gamithromycin, cefquinome, enrofloxacin, tilmicosin, tylosin tartrate, and florfenicol alone was determined using the microdilution method in broth (conducted in triplicate) according to the guiding principles of the CLSI. Based on the action mechanism of each drug, the antimicrobial activity of colistin or cefquinome (drug A) in combination with gamithromycin, enrofloxacin, tilmicosin, tylosin tartrate, or florfenicol (drug B) was determined with the checkerboard method, according to the minimal inhibitory concentration (MIC) of each drug. Briefly, 50 μL of MH II broth was added to each well, and 50 μL of the indicated concentration of colistin or cefquinome was added into the first well of each line. This was followed by multiproportion dilution. Next, 50-μL samples of different concentrations of gamithromycin or the other drugs mentioned above were added to the dilution medium, and a 100 μL inoculum with a cell density of ∼1 × 10^6 colony-forming units (CFU)/mL was added to each well. The plates were then incubated at 37°C for 24 h. According to the EUCAST definitive document E.Def 1.2 ([Mccullough, 2010]), the fractional inhibitory concentration (FIC) index for combined administrations was defined as the sum of the FIC of drug A and the FIC of drug B, where FIC is the MIC of the drug combined with other drugs, divided by the MIC of the drug alone.
Background: Dilution methods test growth across graded concentrations, often in twofold steps.

Series [3] concerns Pasteurella multocida strains (D18, T5, and WJ11). Put plainly: PK/PD relationship analysis (inhibitory Emax model, plasma AUC/MIC, target doses). It is filed as in vivo. As to conditions: gamithromycin monotherapy; for Gamithromycin AUC/MIC required to reach 1-log10 kill / Gamithromycin AUC/MIC required to reach stasis: plasma AUC. On the procedure: The relationship between the in vivo antimicrobial activity of gamithromycin alone or in combination with colistin and the ratio of plasma PK parameters to the MIC of gamithromycin was assessed. An inhibitory effect Emax model from the Phoenix WinNonlin identification module was used for analysis based on the equation: E = Emax − (Emax−E0) × Ce/(Ce + EC50), where E is the antimicrobial effect (i.e., the change in bacterial burden in CFU per lung), Emax is the change in log10 CFU/lung for control groups, […], Ce is the PK/PD index under analysis, and EC50 is the Ce value at 50% of E0.
Integration of PK and PD data is important for clinical drug administration ([Toutain et al., 2002]). Herein, PK values in plasma were used to calculate the PK/PD index, which was integrated with changes in bacteria log10 CFU/lung. Antimicrobials that achieve significant PAE values are generally described as concentration-dependent ([Jacobs, 2004]).

For series [4] the following is noted: cattle, SC 6 mg/kg; ref Steeve et al., 2011; cited from earlier work.
Series [5] can be described thus: In vitro plasma protein binding, equilibrium dialysis. It is filed as in vitro ADME. As to conditions: 72 h at 4°C. On the procedure: In vitro plasma protein-binding experiments for gamithromycin were conducted by adopting an equilibrium dialysis method for 72 h at 4°C. The corresponding unbound plasma PK parameters were obtained and used for the integration of PK and PD data.
For orientation: Equilibrium dialysis compares concentrations on both sides of a semipermeable membrane.

Details of series [6]: method as in Soon-Ee et al., 2015. The conditions noted are these: ref Soon-Ee et al., 2015; cited from earlier work.
The subject of series [7] is Pasteurella multocida (D18, T5, and WJ11). The series can be described thus: In vitro time-kill assays. As to conditions: colistin alone 0.25-1 mg/L, 24 h, all strains (D18, T5, WJ11), inoculum ~5 × 10^6 CFU/mL. It counts as cell-based. On the procedure: In vitro time-kill assays were used to evaluate the effects of colistin alone and in combination with gamithromycin over 24 h. Three isolates of P. multocida (D18, T5, and WJ11) were tested. A P. multocida inoculum at ∼5 × 10^6 CFU/mL was treated with colistin alone at 0.25, 0.5, and 1 mg/L; gamithromycin alone at 0.125, 0.25, and 0.5 mg/L; and with colistin in combination with gamithromycin. At 0, 1, 2, 4, 6, 8, 12, and 24 h after incubation, 100-μL samples were taken from each tube for colony counting. A growth control without drug administration was included in all tests.

Where [8] appears, read: strain D18, lungs of mice, n = 4.
The mark [9] stands for this setting: strain T5, lungs of mice, n = 4.
[10] abbreviates: strain WJ11, lungs of mice, n = 4.

A word on the MIC: it is the lowest concentration found to suppress growth. As to `CCCN1C[C@H](C)[C@@H](O)[C@](C)(O)[C@@H](CC)OC(=O)[C@H](C)[C@@H](O[C@H]2C[C@@](C)(OC)[C@@H](O)[C@H](C)O2)[C@H](C)[C@@H](O[C@@H]2O[C@H](C)C[C@H](N(C)C)[C@H]2O)[C@](C)(O)C[C@H]1C` [Gamithromycin], the MIC in the series on P. multocida was at least 512 µg/mL; in series [2] (strain CVCC 444) it was 0.5 µg/mL; in series [2] (strain D18) it was 0.5 µg/mL; in series [2] (strain PmP2 (pig)), 0.5 µg/mL; in series [2] (strain PmP17 (pig)), 0.5 µg/mL; in series [2] (strain T5), 0.5 µg/mL. For the same molecule, the MIC in series [2] (strain WJ11), in series [2] (strain WN71), in series [2] (strain WW81) and in series [2] (strain XX12) was 0.5 µg/mL each time. The figures for the AUClast in series [1] and in series [4] were 3.48 mg⋅h/L and 7.82 mg⋅h/L, respectively. The “Gamithromycin dose required to reach 1-log10 kill” value in series [3] (Mean ± SD of D18, T5, WJ11, SD) was 67.11 ± 6.01 mg/kg; in series [3] (setting [8]) it was 65.32 mg/kg; in series [3] (setting [9]) it was 73.80 mg/kg; in series [3] (setting [10]), 62.19 mg/kg. The “Gamithromycin dose required to reach stasis” value in series [3] (Mean ± SD of D18, T5, WJ11, SD) turned out to be 18.43 ± 3.10 mg/kg; in series [3] (setting [8]), 17.99 mg/kg; in series [3] (setting [9]), 21.73 mg/kg; in series [3] (setting [10]), 15.58 mg/kg. The “Gamithromycin AUC/MIC required to reach 1-log10 kill” value in series [3] (strain D18, n = 4) worked out at 36.74; in series [3] (strain T5, n = 4) it was 41.51; in series [3] (strain WJ11, n = 4), 34.98. The “Gamithromycin AUC/MIC required to reach stasis” value in series [3] (strain D18, n = 4) stood at 10.33; in series [3] (strain T5, n = 4), 12.47; in series [3] (strain WJ11, n = 4) it was 8.11. The “plasma protein binding extent” value in series [5] was 13.83%.

Take `CC[C@H](C)CCCCC(=O)N[C@@H](CCN)C(=O)N[C@H](C(=O)N[C@@H](CCN)C(=O)N[C@H]1CCNC(=O)[C@H]([C@@H](C)O)NC(=O)[C@H](CCN)NC(=O)[C@H](CCN)NC(=O)[C@H](CC(C)C)NC(=O)[C@@H](CC(C)C)NC(=O)[C@H](CCN)NC1=O)[C@@H](C)O` [Colistin] (X1-[Dab]T[Dab][Dab][Dab][dL]L[Dab][Dab]T; lactam 4-C): in series [6], the “unbound extent in plasma” value was 8.4%. Further, in series [7], the time-kill outcome was “incapable of controlling bacterial growth”.
